How the values were obtained:
[1] = The ability of compound to inhibit [35S][…] binding in guinea pig caudate stimulated by SNC80 (Opioid receptor delta 1) antagonist
[2] = The ability of compound to inhibit [35S][…] binding in guinea pig caudate stimulated by SNC80

CCO[C@@]12Cc3c(oc4ccccc34)[C@@H]3Oc4c(O)ccc5c4[C@@]31CCN(CC1CC1)[C@@H]2C5
Ki [1]: 0.88 nM

CCO[C@@]12Cc3c([nH]c4ccccc34)[C@]3(C)Oc4c(O)ccc5c4C31CCN(CC1CC1)C2C5 (stereo partly drawn) [22-cyclopropylmethyl-2-ethoxy-13-methyl-(2S,13R)-14-oxa-11,22-diazaheptacyclo[13.9.1.01,13.02,21.04,12.05,10.019,25]pentacosa-4(12),5(10),6,8,15,17,19(25)-heptaen-16-ol]
Ki [1]: 0.96 nM

C=CCN1CC[C@]23c4c5ccc(O)c4O[C@H]2c2[nH]c4ccccc4c2C[C@@]3(OCC)[C@H]1C5
Ki [2]: 1 nM

— BindingDB's records for doi:10.1021/jm020940p (University of Innsbruck, 2002)
